Article PMC11434354, “Metabolic and Pharmacokinetic Profiling Studies of N, N-Dimethylaniline-Heliamine in Rats by UHPLC-Q-Orbitrap MS/MS” (Molecules, 2024)

Assay: Metabolite identification of DH in rat plasma, urine, feces and rat liver microsomes by UHPLC-Q-Orbitrap MS/MS
Format: in vivo
Parameters: key: F*: feces; U*: urine; P*: plasma; LM*: Liver microsome
Conditions: rat plasma
Method: For the analysis of DH metabolites, the same UHPLC-MS/MS system was used for the plasma analysis, and the ACQUIT UHPLC BEH C18 column was also utilized. Mobile phase A consisted of 0.1% formic acid in water (v/v), while mobile phase B comprised acetonitrile. The flow rate was maintained at 0.2 mL/min, with a 10 µL injection volume. The column temperature was kept constant at 35 °C, and the RS autosampler temperature was maintained at 10 °C. The gradient elution was as follows: 0–3 min(5%B), 3–11 min (7%B), 11–18 min (7%B), and 18–45 min (30%B). A full MS/dd MS^2 mode in positive heated electrospray ionization (HESI) with 140,000 (for MS) and 17,500 (for MS/MS) resolutions was used for the Q–Exactive Plus Orbitrap MS. The compounds identified in full MS/dd MS^2 mode will be scanned using PRM scanning. The following MS parameters were employed: AGC target, 1 × 10^6; Maximum IT, 100 ms; Spray voltage, 3.2 kV; Capillary temp, 320 °C; S-lens RF level, 55; HCD Energy 20, 40, and 60.
Rat liver microsomes were used for in vitro experiments to study DH metabolism in rats more quickly and easily. After that, the cofactors of phases I and II were added to create the phase I and phase II metabolic systems. The composition of the reagent kit and the procedure can be found in our previous work.
For the plasma study, 100 µL of plasma was obtained from rats at 0.5, 1, 2, and 4 h after medicine administration. Then, 300 µL of acetonitrile was added to the above plasma, vortexed for 1 min, and centrifuged for 7 min. The supernatant was collected, and the remaining liquid was dried using nitrogen gas at 40 °C. The blow-dried samples were re-dissolved in 100 µL methanol, sonicated for 1 min, and centrifuged for 7 min.
Urine was collected during the period spanning from 0 to 48 h following administration, with each period’s combined urine comprising 10 mL and 30 mL of acetonitrile added thereto. After a 10 min interval of sonication, the urine samples were transferred into 1.5 mL centrifuge tubes, vortexed for 1 min, and then centrifuged at a speed of 14,000 rpm for 10 min. Successively, the supernatant was merged and subjected to drying by nitrogen gas at 40 °C. The blow-dried samples were re-dissolved in 100 µL of methanol, sonicated for 1 min, and centrifuged for 7 min.
For the fecal study, feces were collected within 0–48 h following administration, dried to powder at room temperature in a shaded area, and combined to yield 8 mL per period, to which 40 mL of acetonitrile was added. Following 30 min of sonication, the samples were transferred to 1.5 mL centrifuge tubes and centrifuged at 14,000 rpm for 10 min. The supernatant was collected and dried with nitrogen at 40 °C before analysis via UHPLC-MS/MS. Before analysis, the blow-dried samples were re-dissolved in 100 µL of methanol, sonicated for 1 min, and centrifuged for 7 min.
Compound Discovery 3.3 was used for data processing. The MS spectrometric features mainly include retention time, exact mass, peak intensity, and fragment ions. The data processing mainly included selecting spectra, aligning retention times, creating pattern traces, creating fish traces, generating expected compounds, finding expected compounds, grouping expected compounds, fish scoring, and marking background compounds. The mass tolerance is less than 5 ppm.

Compound | Rat and LM* (matrices in which DH or the metabolite was detected)
CN(C)c1ccc(C2NCCc3cc(O)c(O)cc32)cc1 (stereo not shown) [M2–A] | U*, LM*
CNc1ccc(C2NCCc3cc(OC)c(OC)cc32)cc1 (stereo not shown) [M4–C] | P*, U*, LM*
COc1cc2c(cc1OC)C(c1ccc(N)cc1)NCC2 (stereo not shown) [M2–B] | P*, U*, LM*
CN(C)c1ccc(-c2nccc3cc(O)c(O)cc23)cc1 [M6–A] | F*
